Results from patent US8889708B2 (Boehringer Ingelheim International GmbH, priority 2013, dated 2014).

Assays:
[1] = Metabolic stability with human liver microsomes; type: in vitro ADME; conditions: pH 7.6; pooled human liver microsomes, 37° C., 1 μM test compound, 1 mg/ml protein, NADPH; read-out: In vitro stability in human liver microsome incubations t½
Procedure: Determination of Metabolic Stability with Human Liver Microsomes
The metabolic degradation of the test compound is assayed at 37° C. with pooled human liver microsomes. The final incubation volume of 100 μl per time point contains TRIS buffer pH 7.6 (0.1 M), magnesium chloride (5 mM), microsomal protein (1 mg/ml) and the test compound at a final concentration of 1 μM. Following a short preincubation period at 37° C., the reactions are initiated by addition of beta-nicotinamide adenine dinucleotide phosphate, reduced form (NADPH, 1 mM) and terminated by transferring an aliquot into acetonitrile after different time points. Additionally, the NADPH-independent degradation is monitored in incubations without NADPH, terminated at the last time point. The [%] remaining test compound after NADPH independent incubation is reflected by the parameter c(control) (metabolic stability). The quenched incubations are pelleted by centrifugation (10,000 g, 5 min). An aliquot of the supernatant is assayed by LC-MS/MS for the amount of parent compound.
The half-life (t½ INVITRO) is determined by the slope of the semilogarithmic plot of the concentration-time profile. The intrinsic clearance (CL_[…]) is calculated by considering the amount of protein in the incubation: CL_[…][μl/min/mg protein]=(ln 2/(half-life[min]*protein content[mg/ml]))*1,000.

[2] = molecular target: recombinant human Cathepsin K (Homo sapiens (Human), UniProt P43235); assay: Inhibition of Human Cathepsin K; type: biochemical; conditions: substrate Z-Gly-Pro-Arg-AMC, 60 min room temperature
Sequence of recombinant human Cathepsin K (P43235 115-329): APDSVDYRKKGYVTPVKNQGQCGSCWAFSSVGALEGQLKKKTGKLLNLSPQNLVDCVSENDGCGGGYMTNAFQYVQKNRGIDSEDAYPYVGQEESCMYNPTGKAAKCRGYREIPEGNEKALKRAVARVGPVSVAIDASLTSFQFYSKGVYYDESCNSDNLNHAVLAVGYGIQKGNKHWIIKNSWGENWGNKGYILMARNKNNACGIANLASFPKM
Excerpt: Inhibition of Human Cathepsin K Materials: Microtiterplates (Optiplate-384 F were purchased from PerkinElmer (Prod. No. 6007270). The substrate Z-Gly-Pro-Arg-AMC was from Biomol (Prod.-No. P-142). L-Cysteine (Prod. No. 168149) was from Sigma. Sodium actetate was from Merck (Prod.-No. 6268.0250), EDTA was from Fluka (Prod.-No. 03680). The inhibitor E-64 was purchased from Sigma (Prod.-No. E3132). The recombinant human Cathepsin K proenzyme was purchased from Biomol (Prod. No. SE-367). All other materials were of highest grade commercially available.
The following buffers were used: Activation buffer: 32.5 mM sodium acetate, adjusted to pH 3.5 with HCl; Assay buffer: 150 mM sodium acetate, 4 mM EDTA, 20 mM L-Cysteine, adjusted to pH 5.5 with HCl,
To activate the proenzyme, 5 μl procathepsin K were mixed with 1 ul activation buffer, and incubated at room temperature for 30 min.
5 μL test compound (final concentration 0.1 nM to 100 μM) in aqua bidest (containing 4% DMSO, final DMSO concentration 1%) were mixed with 10 uL of Cathepsin K in assay buffer (final concentration 2 ng/μL) and incubated for 10 min. Then 5 μL of substrate in assay buffer (final concentration 12.5 μM) were added. The plates were then incubated at room temperature for 60 min. Then, the reaction was stopped by adding 10 μL of E64 in assay buffer (final concentration 1 μM). The fluorescence in the wells was determined using a Molecular Devices SpectraMax M5 Fluorescence Reader (Ex 360 nm, Em 460 nm).
Each assay microtiter plate contains wells with vehicle controls (1% DMSO in bidest) as reference for non-inhibited enzyme activity (100% Ctl; high values) and wells with inhibitor (E64 in bidest+1% DMSO, final concentration 1 μM) as controls for background fluorescence (0% Ctl; low values). The analysis of the data was performed by calculating the percentage of fluorescence in the presence of test compound in comparison to the fluorescence of the vehicle control after subtracting the background fluorescence: (RFU(sample)−RFU(background))*100/(RFU(control)−RFU(background))
Data from these calculations were used to generate IC50 values for inhibition of Cathepsin K, respectively.

Compound	half-life at 1 μM [1] [h]	IC50 [2] [µM]
COCCN1C(=O)Cc2ccc(-c3ccc(C[C@@H](C#N)NC(=O)C45CCC(CC4)CN5)c(F)c3)cc21 [Example 26]	> 2.17	1.1
N#C[C@H](Cc1ccc(-c2ccc3c(c2)CCNC3=O)cc1F)NC(=O)C12CCC(CC1)CN2 [Example 22]	> 2.17	2.3
CN1Cc2cc(-c3ccc(C[C@@H](C#N)NC(=O)C45CCC(CC4)CN5)cc3)ccc2C1=O [Example 4]	> 2.17	6.3
CC1(C)OC(=O)c2ccc(-c3ccc(C[C@@H](C#N)NC(=O)C45CCC(CC4)CN5)c(F)c3)cc21 [Example 27]	> 2.17	1.7
N#C[C@H](Cc1ccc(-c2csc(C(N)=O)c2)cc1F)NC(=O)C12CCC(CC1)CN2 [Example 31]	> 2.17	0.8
CN1C(=O)Cc2ccc(-c3ccc(C[C@@H](C#N)NC(=O)C45CCC(CC4)CN5)c(F)c3)cc21 [Example 28]	> 2.17	2.2

The remaining molecules from weak to strong by IC50 [2], led by results:

half-life at 1 μM [1] [h]	IC50 [2] [µM]	Compound
> 2.17	6.7	CN1C(=O)Cc2ccc(-c3ccc(C[C@@H](C#N)NC(=O)C45CCC(CC4)CN5)cc3)cc21 [Example 2]
> 2.17	0.8	CS(=O)(=O)c1ccc(-c2ccc(C[C@@H](C#N)NC(=O)C34CCC(CC3)CN4)c(F)c2)cc1 [Example 21, N-[(1S)-1-cyano-2-[2-fluoro-4-(4-methanesulfonylphenyl)phenyl]ethyl]-2-azabicyclo[2.2.2]octane-1-carboxamide]
> 2.17	0.6	N#C[C@H](Cc1ccc(-c2ccc3c(c2)NC(=O)C3)cc1F)NC(=O)C12CCC(CC1)CN2 [Example 23]
